Experimental data taken from article PMC5330453, “Synthesis and biological evaluation of dihydropyrano-[2,3-c]pyrazoles as a new class of PPARγ partial agonists” (PLoS ONE, 2017).
Values joined by “and” are separate entries in the source; they are usually repeats but may differ in a detail not shown here. Identical values can stand only once. Like-named read-outs stand apart in the source and are kept apart here.

Legend:
hPPARγ LBD [1] = target: T1, hPPARγ LBD (Homo sapiens, UniProt P37231); test: TR-FRET competitive binding assay (LanthaScreen), displacement of a fluorescent pan PPAR agonist tracer; settings: GST-tagged PPARγ-LBD, 10 concentrations 3 nM to 500 μM, triplicate
T1 sequence (P37231 238-503 limits assumed): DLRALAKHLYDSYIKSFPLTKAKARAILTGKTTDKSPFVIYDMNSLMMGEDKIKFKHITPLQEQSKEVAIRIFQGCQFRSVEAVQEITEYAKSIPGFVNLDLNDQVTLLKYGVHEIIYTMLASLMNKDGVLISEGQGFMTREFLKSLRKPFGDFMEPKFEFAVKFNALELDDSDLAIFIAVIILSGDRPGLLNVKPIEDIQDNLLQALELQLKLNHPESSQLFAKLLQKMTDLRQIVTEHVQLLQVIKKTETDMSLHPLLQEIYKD
Protocol: IC50 values for respective compounds were determined by competitive binding using time-resolved fluorescence resonance energy transfer (LanthaScreen, Invitrogen) on a Victor2 microplate reader (PerkinElmer). Briefly, a terbium labeled anti-GST antibody was used to label purified GST-tagged PPARγ-LBD (ligand binding domain). Energy transfer from terbium to the tracer, a fluorescent pan PPAR agonist, enabled read-out of each test compounds’s ability to displace the tracer. RFU values from dose-response curves (triplicate sampling) for test compounds as well as positive controls (rosiglitazone) were then analyzed using GraphPad Prism [33]. An unrestrained sigmoidal (one-binding site) dose-response curve was fitted to each data set by linear regression and allowing for determination of IC50 values.

hPPARγ LBD [2] = target: T1, hPPARγ LBD; test: Nuclear receptor-LBD transactivation (Gal4-LBD luciferase reporter) in mouse embryo fibroblasts; assay type: cell-based; design: expressed in transfected cells; host or cells: mouse embryo fibroblasts (MEFs); settings: for transactivation selectivity towards all three PPAR subtypes: compared with PPARα and PPARδ transactivation; for induction of transcriptional activation (in words): cell based transactivation assay
Text: Mouse embryo fibroblasts (MEFs) were propagated in Dulbeccos Modified Eagle’s Media (DMEM) supplemented with 10% FCS and antibiotics.
Cells (Hepa 1–6 were used for PPARα whereas MEFs were used for PPARγ, PPARδ and RXRα transfections) were transfected in solution by Metafectene (Biontex) lipofection, essentially according to the manufacturer’s instructions and seeded in media (MEM or DMEM supplemented with 10% fetal calf serum and antibiotics in 96-well dishes at 24000 cells/cm^2. The transfection plasmid mix included the Gal4-responsive luciferase reporter, the expression vector for the fusion between the Gal4 DNA-binding domain and the nuclear receptor ligand binding domains, and a CMV-Renilla luciferase normalization vector (pRL-CMV, Promega). Six hours after addition of transfection mix to the cells, the media was changed to media (MEM or DMEM) supplemented with vehicle (0.1% DMSO), positive control (1 μM Rosiglitazone, 30 nM GW7647, 1 μM L165041 or 0.2 μM LG1069 for PPARγ, PPARα, PPARδ and RXRα, respectively), or compound. Approx. 18 hours later, cells were harvested and lysates analyzed for Photinus and Renilla luciferase activity by luminometry. All data points were performed in at least triplicate and each sample measured in duplicate. Luminometer raw data was analyzed in Microsoft Excel spreadsheets and presented as column graphs depicting average values of triplicates and including standard deviations.

PPARγ = tested on: PPARγ; design: method as in PMID 23432662; settings: earlier study; read-out: inhibitor activity IC50; cited from earlier work
[3] = tested on: adipocyte differentiation; design: method as in PMID 23432662; settings: earlier study; cited from earlier work
[4] = hPPARγ LBD ligand displacement IC50, TR-FRET
[5] = read-out: hPPARγ LBD ligand displacement IC50, TR-FRET

Structure (SMILES) | IC50 (hPPARγ LBD [1]; [4]) | further results
Cc1n[nH]c2c1C(c1ccc(Cl)cc1Cl)C(C#N)=C(N)O2 (centres unmarked) [10x, 6-Amino-4-(2,4-dichlorophenyl)-3-methyl-1,4-dihydropyrano[2,3-c]pyrazole-5-carbonitrile] | 59 µM | –
Cc1ccc(C)c(C2C(C#N)=C(N)Oc3c2c(C)nn3-c2ccc(Cl)cc2)c1 (centres unmarked) [10ae, 6-Amino-1-(4-chlorophenyl)-4-(2,5-dimethylphenyl)-3-methyl-1,4-dihydropyrano[2,3-c]pyrazole-5-carbonitrile] | 0.52 µM and ≤ 1 µM | transactivation selectivity towards all three PPAR subtypes (hPPARγ LBD [2]): selective against PPARγ
Cc1nn(-c2ccccc2)c2c1C(c1ccccc1)C(C#N)=C(N)O2 (centres unmarked) [10ad, 6-Amino-3-methyl-1,4-diphenyl-1,4-dihydropyrano[2,3-c]pyrazole-5-carbonitrile] | 215 µM and > 100 µM | –
Cc1ccc(C2C(C#N)=C(N)Oc3[nH]nc(-c4ccccc4)c32)c(C)c1 (centres unmarked) [10i, 6-Amino-4-(2,4-dimethylphenyl)-3-phenyl-1,4-dihydropyrano[2,3-c]pyrazole-5-carbonitrile] | 75 µM | –
Cc1ccc(C2C(C#N)=C(N)Oc3[nH]nc(Cc4ccccc4)c32)c(C)c1 (centres unmarked) [10c, 6-Amino-3-benzyl-4-(2,4-dimethylphenyl)-1,4-dihydropyrano[2,3-c]pyrazole-5-carbonitrile] | 104 µM and > 100 µM | –
Cc1ccccc1C1C(C#N)=C(N)Oc2c1c(C)nn2-c1ccc(Cl)cc1 (centres unmarked) [10af] | – | IC50 (hPPARγ LBD [1]; [5]): ≤ 1 µM; transactivation selectivity towards all three PPAR subtypes (hPPARγ LBD [2]): selective against PPARγ
Cc1nn(-c2ccccc2)c2c1C(c1ccc(Cl)cc1Cl)C(C#N)=C(N)O2 (centres unmarked) [10f] | – | induction of transcriptional activation (in words) (hPPARγ LBD [2]): did not induce transcriptional activation
CCCc1n[nH]c2c1C(c1ccc(Cl)cc1)C(C#N)=C(N)O2 (centres unmarked) [10n, 6-Amino-4-(4-chlorophenyl)-3-propyl-1,4-dihydropyrano[2,3-c]pyrazole-5-carbonitrile] | 31 µM | –
CCCc1n[nH]c2c1C(c1ccc(C)cc1C)C(C#N)=C(N)O2 (centres unmarked) [10m, 6-Amino-4-(2,4-dimethylphenyl)-3-propyl-1,4-dihydropyrano[2,3-c]pyrazole-5-carbonitrile] | 14 µM | –
N#CC1=C(N)Oc2[nH]nc(-c3ccccc3)c2C1c1ccccc1 (centres unmarked) [10h, 6-Amino-3,4-diphenyl-1,4-dihydropyrano[2,3-c]pyrazole-5-carbonitrile] | 173 µM and > 100 µM | –
Cc1cc(C)c([C@@H]2C(C#N)=C(N)Oc3n[nH]c(C)c32)cc1COc1ccc(Cl)cc1C (stereo in doubt) [compound 4] | 32 µM | IC50 (PPARγ): 30 µM; induction of adipocyte differentiation [3]: relatively poor induction of adipocyte differentiation
Cc1nn(-c2ccccc2)c2c1C(c1ccc(Cl)cc1Cl)C(C#N)=C(N)O2 (centres unmarked) [10ag, 6-Amino-4-(2,4-dichlorophenyl)-3-methyl-1-phenyl-1,4-dihydropyrano[2,3-c]pyrazole-5-carbonitrile] | 14 µM | –
Cc1ccccc1C1C(C#N)=C(N)Oc2[nH]nc(Cc3ccccc3)c21 (centres unmarked) [10b, 6-Amino-3-benzyl-5(o-tolyl)-1,4-dihydropyrano[2,3-c]pyrazole-5-carbonitrile] | 15.7 µM | induction of transcriptional activation (in words) (hPPARγ LBD [2]): did not induce transcriptional activation
CCCc1n[nH]c2c1C(c1cc(C)ccc1C)C(C#N)=C(N)O2 (centres unmarked) [10p, 6-Amino-4-(2,5-dimethylphenyl)-3-propyl-1,4-dihydropyrano[2,3-c]pyrazole-5-carbonitrile] | 91 µM | –
Cc1ccc(C)c(C2C(C#N)=C(N)Oc3[nH]nc(-c4ccccc4)c32)c1 (centres unmarked) [10g] | – | IC50 (hPPARγ LBD [1]; [5]): > 100 µM
Cc1cc(C)c(C2C(C#N)=C(N)Oc3[nH]nc(C)c32)cc1COc1ccc(Cl)c2cccnc12 (centres unmarked) [10s, 6-Amino-4-(5-(((5-chloroquinolin-8-yl)oxy)methyl)-2,4-dimethylphenyl)-3-methyl-1,4-dihydropyrano[2,3-c]pyrazole-5-carbonitrile] | 14 µM | –
COc1ccc(C2C(C#N)=C(N)Oc3[nH]nc(C)c32)c(C)c1C (centres unmarked) [10y, 6-Amino-4-(4-methoxy-2,3-dimethylphenyl)-3-methyl-1,4-dihydropyrano[2,3-c]pyrazole-5-carbonitrile] | 87 µM | –
Cc1ccc(C2C(C#N)=C(N)Oc3[nH]nc(C)c32)c(C)c1 (centres unmarked) [10aa, 6-Amino-4-(2,4-dimethylphenyl)-3-methyl-1,4-dihydropyrano[2,3-c]pyrazole-5-carbonitrile] | 407 µM and > 100 µM | –
